According to PubChem BioAssay (NCI):
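The compound was tested at five concentrations on cells cultured in 96-well plates, with a 48-hour exposure period. Abbreviation: GI50, concentration required for 50% inhibition of growth. At the TGI there is no net growth.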

Experiments:
Experiment in all cases: growth of human tumour cells (NCI), 48 h
[1] = test system: SF-539 CNS
[2] = test system: SNB-75 CNS
[3] = test system: RXF 393 renal
[4] = test system: KM12 colon
[5] = test system: SK-MEL-28 melanoma
[6] = test system: HCT-15 colon
[7] = test system: BT-549 breast
[8] = test system: SW-620 colon
[9] = test system: NCI/ADR-RES ovarian
[10] = test system: UO-31 renal
[11] = test system: K-562 leukemia
[12] = test system: HT29 colon
[13] = test system: NCI-H522 lung
[14] = test system: CAKI-1 renal
[15] = test system: MDA-MB-435
[16] = test system: SK-OV-3 ovarian
[17] = test system: SF-268 CNS
[18] = test system: UACC-62 melanoma
[19] = test system: MOLT-4 leukemia
[20] = test system: OVCAR-3 ovarian
[21] = test system: MALME-3M melanoma
[22] = test system: OVCAR-5 ovarian
[23] = test system: SK-MEL-2 melanoma
[24] = test system: MCF7 breast
[25] = test system: SN12C renal
[26] = test system: COLO 205 colon
[27] = test system: HL-60(TB) leukemia
[28] = test system: HOP-92 NSCLC
[29] = test system: HCT-116 colon
[30] = test system: OVCAR-4 ovarian
[31] = test system: PC-3 prostate
[32] = test system: A498 renal
[33] = test system: CCRF-CEM leukemia
[34] = test system: M14 melanoma
[35] = test system: EKVX NSCLC
[36] = test system: SK-MEL-5 melanoma
[37] = test system: NCI-H23 lung
[38] = test system: MDA-MB-231 breast
[39] = test system: LOX IMVI melanoma
[40] = test system: OVCAR-8 ovarian
[41] = test system: NCI-H460 lung
[42] = test system: HS 578T breast
[43] = test system: A549 NSCLC
[44] = test system: 786-0 renal
[45] = test system: HOP-62 NSCLC
[46] = test system: UACC-257 melanoma
[47] = test system: SR leukemia
[48] = test system: IGROV1 ovarian
[49] = test system: RPMI-8226 leukemia
[50] = test system: SF-295 CNS
[51] = test system: DU-145 prostate
[52] = test system: ACHN renal
[53] = test system: SNB-19 CNS
[54] = test system: T-47D breast
[55] = test system: TK-10 renal
[56] = test system: NCI-H226 lung
[57] = test system: HCC-2998 colon
[58] = test system: U251 CNS

O=C(CN1CCN(c2ncnc3ccccc23)CC1)Nc1ccc(Cl)cc1C(=O)c1ccccc1Cl
GI50 [1]: 0.383 µM
TGI [1]: 1.3 µM
GI50 [2]: 0.434 µM
TGI [2]: 1.48 µM
GI50 [3]: 0.61 µM
TGI [3]: 1.31 µM
TGI [4]: 5.08 µM
GI50 [5]: 1.03 µM
TGI [5]: 3.36 µM
GI50 [6]: 3.12 µM
TGI [6]: 10.8 µM
GI50 [7]: 0.239 µM
TGI [7]: 0.618 µM
GI50 [8]: 0.662 µM
TGI [8]: 7.54 µM
GI50 [9]: 3.12 µM
TGI [9]: 16.3 µM
GI50 [10]: 1.87 µM
TGI [10]: 12.6 µM
GI50 [11]: 0.838 µM
TGI [11]: > 52.4 µM
GI50 [12]: 0.394 µM
TGI [12]: 9.4 µM
GI50 [13]: 0.258 µM
TGI [13]: 1.55 µM
GI50 [14]: 1.46 µM
TGI [14]: 7.01 µM
GI50 [15]: 0.589 µM
TGI [15]: 2 µM
GI50 [16]: 3.5 µM
TGI [16]: 36.6 µM
GI50 [17]: 0.686 µM
TGI [17]: 13 µM
GI50 [18]: 0.579 µM
TGI [18]: 1.5 µM
GI50 [19]: 0.472 µM
GI50 [20]: 0.273 µM
TGI [20]: 0.824 µM
GI50 [21]: 0.289 µM
TGI [21]: 2.52 µM
GI50 [22]: 2.92 µM
TGI [22]: > 42.2 µM
GI50 [23]: 0.723 µM
TGI [23]: 2.67 µM
GI50 [24]: 0.636 µM
TGI [24]: 13.1 µM
GI50 [25]: 0.943 µM
GI50 [26]: 0.349 µM
TGI [26]: 1.33 µM
GI50 [27]: 0.415 µM
GI50 [28]: 0.542 µM
TGI [28]: 15.4 µM
GI50 [29]: 0.417 µM
TGI [29]: 11 µM
GI50 [30]: 1.32 µM
TGI [30]: 9.36 µM
GI50 [31]: 0.818 µM
TGI [31]: > 56.3 µM
GI50 [32]: 1.5 µM
TGI [32]: 3.69 µM
GI50 [33]: 0.791 µM
TGI [33]: > 43.8 µM
GI50 [34]: 0.919 µM
TGI [34]: 2.88 µM
GI50 [35]: 2.74 µM
TGI [35]: 7.27 µM
GI50 [36]: 0.5 µM
TGI [36]: 2.7 µM
GI50 [37]: 1.18 µM
TGI [37]: 3.87 µM
GI50 [38]: 0.387 µM
TGI [38]: 3.62 µM
GI50 [39]: 0.207 µM
TGI [39]: 0.471 µM
GI50 [40]: 1.28 µM
TGI [40]: > 30.9 µM
GI50 [41]: 0.598 µM
TGI [41]: 11.6 µM
GI50 [42]: 0.478 µM
TGI [42]: 3.7 µM
GI50 [43]: 2.66 µM
TGI [43]: > 100 µM
GI50 [44]: 0.356 µM
TGI [44]: 12.3 µM
GI50 [45]: 0.626 µM
TGI [45]: 6.07 µM
GI50 [46]: 2.04 µM
TGI [46]: 6.69 µM
GI50 [47]: 0.263 µM
GI50 [48]: 1.7 µM
TGI [48]: 14.4 µM
GI50 [49]: 0.561 µM
TGI [49]: > 22.2 µM
GI50 [50]: 1.11 µM
TGI [50]: 6.07 µM
GI50 [51]: 0.368 µM
TGI [51]: 12 µM
GI50 [52]: 1.67 µM
TGI [52]: 18.7 µM
GI50 [53]: 1.71 µM
TGI [53]: 12.2 µM
GI50 [54]: 0.339 µM
TGI [54]: 3.25 µM
GI50 [55]: 0.501 µM
TGI [55]: 4.44 µM
GI50 [56]: 1.15 µM
TGI [56]: 6.26 µM
GI50 [57]: 1.79 µM
TGI [57]: 4.96 µM

COc1ccc(N(CC(=O)NCCC[Te]c2ccccc2)C(=O)c2ccccc2)cc1
GI50 [1]: 2.3 µM
TGI [1]: 6 µM
GI50 [2]: 2.58 µM
TGI [2]: 9.64 µM
GI50 [3]: 12 µM
TGI [3]: 30.3 µM
GI50 [4]: 3.13 µM
TGI [4]: 11.9 µM
GI50 [5]: 4.33 µM
TGI [5]: 15.6 µM
GI50 [6]: 2.95 µM
TGI [6]: 15 µM
GI50 [7]: 2.39 µM
TGI [7]: 8.68 µM
GI50 [8]: 3.87 µM
TGI [8]: 14.4 µM
GI50 [9]: 3.23 µM
TGI [9]: 10.8 µM
GI50 [10]: 2.77 µM
TGI [10]: 10.9 µM
GI50 [11]: 5.17 µM
TGI [11]: > 100 µM
GI50 [12]: 3.84 µM
TGI [12]: > 100 µM
GI50 [13]: 3.1 µM
TGI [13]: 8.84 µM
GI50 [14]: 2.98 µM
TGI [14]: 14.9 µM
GI50 [15]: 8.06 µM
TGI [15]: 30.2 µM
GI50 [16]: 2.55 µM
TGI [16]: 6 µM
GI50 [17]: 3.19 µM
TGI [17]: 10.8 µM
GI50 [18]: 2.53 µM
TGI [18]: 7.5 µM
GI50 [19]: 3.51 µM
TGI [19]: 17.5 µM
GI50 [20]: 5.75 µM
TGI [20]: 19.8 µM
GI50 [21]: 16.7 µM
TGI [21]: 34.7 µM
GI50 [22]: 3.8 µM
TGI [22]: 11.4 µM
GI50 [58]: 2.82 µM
TGI [58]: 9.4 µM
GI50 [23]: 4.19 µM
TGI [23]: 15.3 µM
GI50 [24]: 3.17 µM
TGI [24]: 10.8 µM
GI50 [25]: 2.7 µM
TGI [25]: 8.51 µM
GI50 [26]: 2.58 µM
TGI [26]: 6.03 µM
GI50 [27]: 2.12 µM
TGI [27]: 5.73 µM
GI50 [28]: 4.1 µM
GI50 [29]: 2.55 µM
TGI [29]: 10.2 µM
GI50 [30]: 11.9 µM
TGI [30]: 25.2 µM
GI50 [31]: 2.68 µM
TGI [31]: 12.6 µM
GI50 [32]: 2.17 µM
TGI [32]: 5.35 µM
GI50 [34]: 4.21 µM
TGI [34]: 15.4 µM
GI50 [35]: 0.407 µM
TGI [35]: 5.27 µM
GI50 [36]: 2.4 µM
TGI [36]: 6.08 µM
GI50 [37]: 3.17 µM
TGI [37]: 9.36 µM
GI50 [38]: 2.08 µM
TGI [38]: 4.76 µM
GI50 [39]: 3.69 µM
TGI [39]: 14.3 µM
GI50 [40]: 3.03 µM
TGI [40]: 8.12 µM
GI50 [41]: 0.543 µM
TGI [41]: 2.37 µM
GI50 [42]: 2.97 µM
TGI [42]: 8.41 µM
GI50 [43]: 0.382 µM
TGI [43]: 2.14 µM
GI50 [44]: 5.09 µM
TGI [44]: 19.6 µM
GI50 [45]: 2.41 µM
TGI [45]: 5.32 µM
GI50 [47]: 2.82 µM
GI50 [48]: 2.88 µM
TGI [48]: 8.27 µM
GI50 [49]: 3.18 µM
TGI [49]: 19.2 µM
GI50 [50]: 1.68 µM
TGI [50]: 8.17 µM
GI50 [51]: 3.9 µM
TGI [51]: 13.9 µM
GI50 [52]: 3.17 µM
TGI [52]: 9.6 µM
GI50 [53]: 4.06 µM
TGI [53]: 59 µM
GI50 [54]: 3.4 µM
TGI [54]: 21.6 µM
GI50 [55]: 3.85 µM
TGI [55]: 11.4 µM
GI50 [56]: 2.62 µM
TGI [56]: 7.21 µM
GI50 [57]: 3.03 µM
TGI [57]: 8.21 µM
